In ChEMBL document CHEMBL3885861, “Open TG-GATES”:

Organism: Rattus norvegicus
Experiment: Open TG-GATES - Regimen: Single
Format: toxicity, organism-based, Sprague-Dawley
Parameters: regimen Single, gender Male, age 6 weeks
Settings: in vivo, po, 30 mg/kg, route gavage, dose level Low; for APTT / Bas / Eos / Fbg / Hb / Ht / Lym / MCH / MCHC / MCV / Mono / Neu / PT / Plat / RBC / Ret / WBC: tissue Blood; for KIDNEY_L / KIDNEY_R / KIDNEY_TOTAL: tissue Kidney; for LIVER: tissue Liver; for A/G / ALP / ALT / AST / BUN / CRE / Ca / Cl / DBIL / GLC / IP / K / LDH / Na / PL / RALB / TBIL / TC / TG / TP / gamma-GTP: tissue Plasma

NC(=O)N/N=C/c1ccc([N+](=O)[O-])o1 [NITROFURAZONE]
TERMINAL_BW (3 h): 181.5 g | APTT (3 h): 16.4 s | Bas (3 h): 0.2% | Eos (3 h): 0.8% | Fbg (3 h): 262.8 mg/dL | Hb (3 h): 13 g/dL | Ht (3 h): 40.6% | Lym (3 h): 68.6% | MCH (3 h): 21.7 pg | MCHC (3 h): 31.9% | MCV (3 h): 67.8 fL | Mono (3 h): 3.6% | Neu (3 h): 26% | PT (3 h): 14.8 s | Plat (3 h): 116.3 x10_4/uL | RBC (3 h): 598.8 x10_4/ul | Ret (3 h): 10.6% | WBC (3 h): 92.5 x10_2/uL | KIDNEY_L (3 h): 0.8 g | KIDNEY_R (3 h): 0.8 g | KIDNEY_TOTAL (3 h): 1.6 g | LIVER (3 h): 8.1 g | A/G (3 h): 0.9 | ALP (3 h): 1547.4 IU/L | ALT (3 h): 43 IU/L | AST (3 h): 76.8 IU/L | BUN (3 h): 10.8 mg/dL | CRE (3 h): 0.2 mg/dL | Ca (3 h): 11.3 mg/dL | Cl (3 h): 106.4 meq/L | DBIL (3 h): 0.01 mg/dL | GLC (3 h): 175 mg/dL | IP (3 h): 9.7 mg/dL | K (3 h): 4 meq/L | LDH (3 h): 47.2 IU/L | Na (3 h): 142.8 meq/L | PL (3 h): 145.4 mg/dL | RALB (3 h): 2.4 g/dL | TBIL (3 h): 0.054 mg/dL | TC (3 h): 81 mg/dL | TG (3 h): 48 mg/dL | TP (3 h): 5.2 g/dL | gamma-GTP (3 h): 1.6 IU/L | TERMINAL_BW (6 h): 178.8 g | APTT (6 h): 16 s | Bas (6 h): 0% | Eos (6 h): 0.8% | Fbg (6 h): 253.2 mg/dL | Hb (6 h): 12.8 g/dL | Ht (6 h): 39.9% | Lym (6 h): 71% | MCH (6 h): 21.3 pg | MCHC (6 h): 32.1% | MCV (6 h): 66.5 fL | Mono (6 h): 2.8% | Neu (6 h): 24% | PT (6 h): 14.6 s | Plat (6 h): 116.1 x10_4/uL | RBC (6 h): 599.8 x10_4/ul | Ret (6 h): 10.6% | WBC (6 h): 83.2 x10_2/uL | KIDNEY_L (6 h): 0.8 g | KIDNEY_R (6 h): 0.8 g | KIDNEY_TOTAL (6 h): 1.6 g | LIVER (6 h): 7.6 g | A/G (6 h): 0.9 | ALP (6 h): 1430.2 IU/L | ALT (6 h): 43.6 IU/L | AST (6 h): 76.8 IU/L | BUN (6 h): 7.8 mg/dL | CRE (6 h): 0.2 mg/dL | Ca (6 h): 11 mg/dL | Cl (6 h): 105 meq/L | DBIL (6 h): 0.01 mg/dL | GLC (6 h): 167.4 mg/dL | IP (6 h): 10.3 mg/dL | K (6 h): 4 meq/L | LDH (6 h): 52.6 IU/L | Na (6 h): 141 meq/L | PL (6 h): 139 mg/dL | RALB (6 h): 2.4 g/dL | TBIL (6 h): 0.062 mg/dL | TC (6 h): 83.6 mg/dL | TG (6 h): 33.2 mg/dL | TP (6 h): 5.1 g/dL | gamma-GTP (6 h): 1.6 IU/L | TERMINAL_BW (9 h): 179 g | APTT (9 h): 16 s | Bas (9 h): 0% | Eos (9 h): 1% | Fbg (9 h): 264.6 mg/dL | Hb (9 h): 12.7 g/dL | Ht (9 h): 39.3% | Lym (9 h): 76.6% | MCH (9 h): 21.1 pg | MCHC (9 h): 32.4% | MCV (9 h): 65.3 fL | Mono (9 h): 2.8% | Neu (9 h): 19% | PT (9 h): 14.9 s | Plat (9 h): 105.2 x10_4/uL | RBC (9 h): 601.4 x10_4/ul | Ret (9 h): 10.5% | WBC (9 h): 60.9 x10_2/uL | KIDNEY_L (9 h): 0.8 g | KIDNEY_R (9 h): 0.8 g | KIDNEY_TOTAL (9 h): 1.7 g | LIVER (9 h): 7.2 g | A/G (9 h): 0.9 | ALP (9 h): 1367.6 IU/L | ALT (9 h): 42.8 IU/L | AST (9 h): 76 IU/L | BUN (9 h): 7.4 mg/dL | CRE (9 h): 0.1 mg/dL | Ca (9 h): 10.8 mg/dL | Cl (9 h): 105.6 meq/L | DBIL (9 h): 0.016 mg/dL | GLC (9 h): 163.6 mg/dL | IP (9 h): 10.3 mg/dL | K (9 h): 3.7 meq/L | LDH (9 h): 48.8 IU/L | Na (9 h): 141.4 meq/L | PL (9 h): 133.2 mg/dL | RALB (9 h): 2.4 g/dL | TBIL (9 h): 0.064 mg/dL | TC (9 h): 72.4 mg/dL | TG (9 h): 40.4 mg/dL | TP (9 h): 5.2 g/dL | gamma-GTP (9 h): 1.2 IU/L | TERMINAL_BW (24 h): 197.2 g | APTT (24 h): 15.8 s | Bas (24 h): 0.2% | Eos (24 h): 0.8% | Fbg (24 h): 260 mg/dL | Hb (24 h): 12.3 g/dL | Ht (24 h): 38% | Lym (24 h): 79% | MCH (24 h): 21.5 pg | MCHC (24 h): 32.3% | MCV (24 h): 66.5 fL | Mono (24 h): 3.6% | Neu (24 h): 16% | PT (24 h): 14.8 s | Plat (24 h): 112 x10_4/uL | RBC (24 h): 571.2 x10_4/ul | Ret (24 h): 10.6% | WBC (24 h): 87.3 x10_2/uL | KIDNEY_L (24 h): 0.9 g | KIDNEY_R (24 h): 0.9 g | KIDNEY_TOTAL (24 h): 1.8 g | LIVER (24 h): 9.3 g | A/G (24 h): 0.9 | ALP (24 h): 1764.6 IU/L | ALT (24 h): 50.2 IU/L | AST (24 h): 75.2 IU/L | BUN (24 h): 14.6 mg/dL | CRE (24 h): 0.2 mg/dL | Ca (24 h): 11.4 mg/dL | Cl (24 h): 104.6 meq/L | DBIL (24 h): 0.014 mg/dL | GLC (24 h): 179.2 mg/dL | IP (24 h): 9.1 mg/dL | K (24 h): 4 meq/L | LDH (24 h): 64.2 IU/L | Na (24 h): 142 meq/L | PL (24 h): 145.6 mg/dL | RALB (24 h): 2.5 g/dL | TBIL (24 h): 0.048 mg/dL | TC (24 h): 80.2 mg/dL | TG (24 h): 62.6 mg/dL | TP (24 h): 5.4 g/dL | gamma-GTP (24 h): 1 IU/L
